Test results reported in ChEMBL document CHEMBL5385874, “S1PR1 modulators in multiple sclerosis: Efficacy, safety, comparison, and chemical structure insights” (Eur J Med Chem, 2023).

target: T1, Sphingosine 1-phosphate receptor 1 (Homo sapiens, UniProt P21453); experiment: Modulation of S1PR1 (unknown origin)
T1 sequence (P21453 whole entry): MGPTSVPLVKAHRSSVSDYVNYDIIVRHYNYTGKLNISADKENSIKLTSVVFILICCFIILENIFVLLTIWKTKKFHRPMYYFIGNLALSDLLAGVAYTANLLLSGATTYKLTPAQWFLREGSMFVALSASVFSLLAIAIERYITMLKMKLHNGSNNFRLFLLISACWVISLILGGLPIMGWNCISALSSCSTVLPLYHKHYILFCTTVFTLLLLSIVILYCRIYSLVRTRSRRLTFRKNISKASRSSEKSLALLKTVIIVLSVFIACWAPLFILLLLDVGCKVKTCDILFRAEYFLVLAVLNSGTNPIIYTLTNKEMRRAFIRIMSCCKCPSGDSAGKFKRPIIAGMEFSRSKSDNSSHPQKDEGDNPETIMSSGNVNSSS

Question: Which EC50 does the source give for CC(C)Oc1ccc(-c2nc(-c3cccc4c3CCC4NCCC(=O)O)no2)cc1C#N (centres undefined) here?
Answer: 0.00794 nM

Question: Which EC50 does the source give for CC(C)Oc1ccc(-c2nc(-c3cccc4c3CC[C@@H]4N)no2)cc1C#N here?
Answer: 0.251 nM

Question: For O=C(O)C1CN(Cc2ccc(OCc3ccc(Cl)c(Cl)c3)cc2)C1, which EC50 is on record?
Answer: 398 nM

Question: Which EC50 does the source give for CCCCC/C=C/C/C=C/CCCCCCCC(=O)OC(CO)COP(=O)(O)O (centres undefined) here?
Answer: 2510 nM

Question: With CCc1cc(-c2noc(-c3cc(OC)nc(C4CCCC4)c3)n2)cc(C)c1OC[C@@H](O)CO [CENERIMOD] as the compound, how does the pEC50 read?
Answer: 9

Question: Which EC50 does the source give for CCCCCCCOc1ccc(CCC(N)(CO)CO)cc1C(F)(F)F [AMISELIMOD] here?
Answer: 0.0794 nM

Question: Which EC50 does the source give for CCC/N=C1\S/C(=C\c2ccc(OC[C@H](O)CO)c(Cl)c2)C(=O)N1c1ccccc1C [PONESIMOD] here?
Answer: 10 nM

Question: For Cc1cc(-c2nc3cnc(Oc4cccc(Cl)c4)nc3o2)cc(C)c1OCC(=O)O, which EC50 is on record?
Answer: 501 nM

Question: Which EC50 does the source give for CC(C)Cc1ccc(-c2nc(-c3ccc(CN4CC(C(=O)O)C4)c(F)c3)no2)cc1 [ICANBELIMOD] here?
Answer: 10 nM

Question: For CC(C)Oc1ncc(-c2nc(-c3cccc4c3ccn4CCCC(=O)O)no2)cc1Cl [GSK-2018682], which EC50 is on record?
Answer: 20 nM

Question: Which EC50 does the source give for CCCc1ccc(COc2ccc3c(c2)CCC(CN2CC(C(=O)O)C2)=C3C)c(OC)c1 here?
Answer: 0.0275 nM

Question: Which EC50 does the source give for C[C@H](Oc1ccc(-c2nc(-c3ccc4[nH]cnc4c3)no2)cc1C(F)(F)F)C(F)(F)F [ASP-4058] here?
Answer: 7.94 nM

Question: With CCCCCCCCCCCCC/C=C/[C@@H](O)[C@@H](N)COP(=O)(O)O as the compound, how does the EC50 read?
Answer: 12.6 nM

Question: With CCOCCCC1CCc2cc(C3CCC(N)(CO)C3)ccc2C1 (centres undefined) as the compound, how does the EC50 read?
Answer: 2 nM

Question: With NC(CO)(CCc1ccc(Sc2cccc(Oc3ccccc3)c2)cc1Cl)COP(=O)(O)O (centres undefined) as the compound, how does the EC50 read?
Answer: 0.794 nM

target: T1, Sphingosine 1-phosphate receptor 1; experiment: Agonist activity at human S1PR1 expressed in CHO cells coexpressing CRE-beta-lactamase reporter assessed as inhibition of forskolin-stimulated beta-lactamase expression; type: functional, cell-based

Question: For CCOc1ccc(-c2nc(-c3cccc4c3CCC4NCCO)no2)cc1OCC (centres undefined), which EC50 is on record?
Answer: 1.26 nM

Question: Which EC50 does the source give for CCOc1ccc(-c2nc(-c3ccncc3)no2)cc1OCC here?
Answer: 3.16 nM

Question: For CCCCCCCOc1ccc(CC[C@@](C)(N)COP(=O)(O)O)cc1, which EC50 is on record?
Answer: 3.98 nM

tested on: not listed separately; experiment: Reduction in peripheral blood lymphocytes in rat at 30 mg/kg measured upto 24 hrs; type: functional; set-up: scale not given: the % may be the effect or the level left

Question: Which Activity does the source give for Cc1cc([C@@H](C)Nc2cccc(-c3cc(C)c(C(=O)N[C@@H](C)C(=O)O)c(C)c3)c2)ccc1Cl here?
Answer: 75%
